In paper PMC9749936, “Synthesis and structure–activity relationship studies of N-terminal analogues of the lipopeptide antibiotics brevicidine and laterocidine” (RSC Medicinal Chemistry, 2022):
Bridge positions count the residues as written; N and C are the ends. Square brackets hold non-standard residues; d marks the D form. Peptide text beside a SMILES is read from it. * marks the point of attachment. Palmitoyl = CCCCCCCCCCCCCCCC(=O)*; Myristoyl = CCCCCCCCCCCCCC(=O)*; Lauroyl = CCCCCCCCCCCC(=O)*; Decanoyl = CCCCCCCCCC(=O)*; dOrn = NCCC[C@@H](N)C(=O)O; Orn = NCCC[C@H](N)C(=O)O

Legend:
S. aureus USA300 = format: cell-based, Staphylococcus aureus; settings: USA300, 18 h
Experimental: (§1) The minimum inhibitory concentrations (MICs) of brevicidine and laterocidine analogues were determined against a panel of clinically relevant ESKAPE pathogens; Escherichia coli (E. coli), Klebsiella pneumoniae (K. pneumoniae), Acinetobacter baumannii (A. baumannii), Pseudomonas aeruginosa (P. aeuroginosa) and Staphylococcus aureus (S. aureus), which cause the majority of nosocomial infections in the United States.[16] […] In this resistance mechanism, the polymyxin target (lipid A) is modified, reducing binding affinity. For this reason, a strain of colistin-resistant E. coli carrying the mcr-1 gene was also included in the panel. […]
(§2) IV. Antimicrobial testing
(§3) All minimum inhibitory concentrations (MICs) were determined according to Clinical and Standards Laboratory Institute (CLSI) guidelines. Blood agar plates were inoculated with glycerol stocks of E. coli ATCC 25922, K. pneumoniae ATCC 13883, A. baumannii ATCC 17961, P. aeruginosa PAO1 and S. aureus USA300. The inoculated agar plates were then incubated for 16 h at 37 °C . Individually grown colonies were subsequently used to inoculate 5 mL aliquots of TSB that were then incubated at 37 °C with shaking at 220 rpm. E. coli 25922 MCR-1 glycerol stock was used to inoculate 5 mL of TSB supplemented with kanamycin that was then incubated for 16 h at 37 °C with shaking at 220 rpm. The next day the culture was diluted 100 fold in TSB supplemented with kanamycin and incubated at 37 °C with shaking at 220 rpm. In parallel, the lipopeptide antibiotics DMSO stocks to be assessed were serially diluted with MHB in polypropylene 96-well plates (50 µL in each well). Colistin sulfate stocks were dissolved in water before being diluted with MHB. Aliquots of the inoculated TSB were incubated until an OD600 of around 0.5 was reached. The bacterial suspensions were then diluted with MHB (2 x 10^5 CFU mL-1) and added to the microplates containing the test compounds (50 µL to each well). The well-plates were sealed with an adhesive membrane and after 18 h of incubation at 37 °C with shaking at 600 rpm, the wells were visually inspected for bacterial […]
(§4) growth. MIC values reported are based on three technical replicates and defined as the lowest concentration of the compound that prevented visible growth of bacteria. […]
(§5) The values obtained from a read-out at 415 nm were corrected for background (negative control) and transformed to a percentage relative to the positive control.
(§6) VI. HPLC and HRMS analysis of peptides
(§7) Peptide Name Chemical Calcd Mass found Calcd Overall […]

A. baumannii ATCC 17961 = format: cell-based, Acinetobacter baumannii; settings: ATCC 17961, 18 h
Experimental: as §1, §2, §3, §4, §5, §6, §7

P. aeruginosa PAO1 = format: cell-based, Pseudomonas aeruginosa; settings: PAO1, 18 h
Experimental: as §1, §2, §3, §4, §5, §6, §7

K. pneumoniae ATCC 13883 = format: cell-based, Klebsiella pneumoniae; settings: ATCC 13883, 18 h
Experimental: as §1, §2, §3, §4, §5, §6, §7

E. coli ATCC 25922 = format: cell-based, Escherichia coli; settings: ATCC 25922, 18 h
Experimental: as §1, §2, §3, §4, §5, §6, §7

E. coli ATCC 25922 MCR-1 = format: cell-based, Escherichia coli; settings: colistin-resistant strain carrying mcr-1; CLSI broth microdilution in MHB, 18 h at 37 °C, visual inspection; three technical replicates
Experimental: as §1
Colisitin sulfate was purchased from Activate Scientific. Kanamycin monosulfate was purchased from MP Biomedicals. E. coli ATCC 25922, S. aureus USA300 (ATCC BAA1717), K. pneumoniae ATCC 13883 and A. baumannii ATCC 17961 belong to the American Type Culture Collection (ATCC). P. aeruginosa PAO1 was kindly provided by L.H.C. Quarles Van Ufford, Utrecht University, Utrecht, The Netherlands. E. coli ATCC 25922 MCR-1 was transfected in house using the pGDP2-MCR1 plasmid kindly provided by Yong-Xin Li, The University of Hong Kong, Hong Kong, China. Sheep blood agar plates (Ref. PB5039A) were purchased from Thermo Scientific. Tryptic soy broth (Ref. 02-200-500) was purchased from Scharlab. Mueller-Hinton broth (Ref. X927.1) was purchased from Carl Roth. Polypropylene 96-wells plates (Ref. 3879) were purchased from Corning. […]
(10.0 mL). 2-Chlorotrityl (CT) chloride resin (2.00 g, 0.81 mmol g-1) and DIPEA (420 µL, 2.40 mmol) were added. […]
A gradient […]
method for C14 - C16 laterocidine was employed, starting at 100% solvent A for 2 min, ramping up to 70 % solvent B over 45 min, ramping up to 100% solvent B over 1 min, remaining there for 6 min before ramping down to 100% solvent A and remaining there for 5 min. High resolution mass spectrometry (HRMS) spectra of brevicidine peptides were recorded by Analytical Services and Environmental Projects (ASEP) at Queen’s University Belfast on a Waters LCT Premier ToF mass spectrometer using the electrospray ionisation (ESI) technique. HRMS spectra of laterocidine peptides were performed on a Thermo Scientific Dionex UltiMate 3000 HPLC system with a Phenomenex Kinetex C18 (2.6 µm, 2.1 x 150 mm) column at 35 °C and equipped with a diode array detector. The following solvent system, at a flow rate of 0.3 mL/min, was used: solvent A = 0.1% formic acid in water, solvent B = 0.1% formic acid in acetonitrile. A gradient method was employed, starting at 95 % solvent A and 5 % solvent B for 1 min, ramping up to 95 % solvent B over 9 min, ramping up to 98 % solvent B over 1 min, remaining there for 1 min before ramping back down to 95 % solvent A over 2 min and remaining there for 1 min.
The system was connected to a Bruker micrOTOF-Q II mass spectrometer (ESI ionization) calibrated internally with sodium […]
as §2
as §3, with “MHB.” for “MHB. Aliquots of the inoculated TSB were incubated until an OD600 of around 0.5 was reached. The bacterial suspensions were then diluted with MHB (2 x 10^5 CFU mL-1) and added to the microplates containing the test compounds (50 µL to each well). The well-plates were sealed with an adhesive membrane and after 18 h of incubation at 37 °C with shaking at 600 rpm, the wells were visually inspected for bacterial”

Sheep red blood cells = format: cell-based; settings: red cells of sheep, 1 h, 64 μg mL^−1
Experimental: Having ascertained the antimicrobial activity of all synthetic peptides against a panel of ESKAPE pathogens, we next assessed their mammalian toxicity with hemolytic assays using sheep red blood cells. The % hemolysis for all peptides at 64 μg mL^−1 was determined, with the hemolysis induced by the surfactant 0.1% Triton X-100 taken as 100%. […] Hemolysis was <1% for all analogues with a C8 chain or shorter, including the strongest antibacterial peptide C8-Lat (22). Hemolytic activity increased up to C14 (>50% for C14-Lat) and then decreased at longer chain lengths, perhaps due to decreased solubility of peptides or aggregation. […]
Phosphate-Buffered Saline (PBS) containing 0.002% Tween20 (buffer) five times. Then, the red blood cells were normalized to obtain a positive control read-out between 2.5 and 3.0 at 415 nm to stay within the linear range with the maximum sensitivity. A serial dilution of the compounds (128 – 1 µg/mL, 75 µL) was prepared in a 96-well polypropylene plate. The outer border of the plate was filled with 75 µL buffer. Each plate contained a positive control (0.1% Triton-X final concentration, 75 µL) and a negative control (buffer, 75 µL) in triplicate. The normalized blood cells (75 µL) were added and the plates were incubated at 37 °C for 1 h while shaking at 500 rpm. A flat-bottom polystyrene plate with 100 µL buffer in each well was prepared. After incubation, the plates were centrifuged (800 g for 5 min at room temperature) and 25 µL of the supernatant was transferred to their respective wells in the flat-bottom plate. The values obtained from a read-out at 415 nm were corrected for background (negative control) and transformed to a percentage relative to the positive control. […]

Row | Structure (SMILES) | Antimicrobial activity (MIC) S. aureus USA300 (S. aureus USA300) [µg/mL] | Antimicrobial activity (MIC) A. baumannii ATCC 17961 (A. baumannii ATCC 17961) [µg/mL] | Antimicrobial activity (MIC) P. aeruginosa PAO1 (P. aeruginosa PAO1) [µg/mL] | Antimicrobial activity (MIC) K. pneumoniae ATCC 13883 (K. pneumoniae ATCC 13883) [µg/mL] | Antimicrobial activity (MIC) E. coli ATCC 25922 (E. coli ATCC 25922) [µg/mL] | Antimicrobial activity (MIC) E. coli ATCC 25922 MCR-1 (E. coli ATCC 25922 MCR-1) [µg/mL] | % Hemolytic activity, sheep red blood cells (Sheep red blood cells) [%]
1 | CCCCCCCCCC(=O)N[C@H](CC(N)=O)C(=O)N[C@H](Cc1ccc(O)cc1)C(=O)N[C@H](Cc1c[nH]c2ccccc12)C(=O)N[C@H](CCCN)C(=O)N[C@@H](CCCN)C(=O)NCC(=O)N[C@H](CCCN)C(=O)N[C@@H](Cc1c[nH]c2ccccc12)C(=O)N[C@@H]1C(=O)N[C@@H]([C@@H](C)CC)C(=O)NCC(=O)N[C@@H](CO)C(=O)O[C@@H]1C [Compound 14] (Decanoyl-[dN][dY][dW][dOrn][Orn]G[dOrn]WTIGS; ester 9-C) | 32 | 4 | 8 | 4 | 4 | 4 | 6.2
2 | CCCCCCCCCCCC(=O)N[C@H](CC(N)=O)C(=O)N[C@H](Cc1ccc(O)cc1)C(=O)N[C@H](Cc1c[nH]c2ccccc12)C(=O)N[C@H](CCCN)C(=O)N[C@@H](CCCN)C(=O)NCC(=O)N[C@H](CCCN)C(=O)N[C@@H](Cc1c[nH]c2ccccc12)C(=O)N[C@@H]1C(=O)N[C@@H]([C@@H](C)CC)C(=O)NCC(=O)N[C@@H](CO)C(=O)O[C@@H]1C [Compound 15] (Lauroyl-[dN][dY][dW][dOrn][Orn]G[dOrn]WTIGS; ester 9-C) | 32 | 4 | 16 | 8 | 8 | 8 | 13.3
3 | CCCCCCCCCCCCCC(=O)N[C@H](CC(N)=O)C(=O)N[C@H](Cc1ccc(O)cc1)C(=O)N[C@H](Cc1c[nH]c2ccccc12)C(=O)N[C@H](CCCN)C(=O)N[C@@H](CCCN)C(=O)NCC(=O)N[C@H](CCCN)C(=O)N[C@@H](Cc1c[nH]c2ccccc12)C(=O)N[C@@H]1C(=O)N[C@@H]([C@@H](C)CC)C(=O)NCC(=O)N[C@@H](CO)C(=O)O[C@@H]1C [Compound 16] (Myristoyl-[dN][dY][dW][dOrn][Orn]G[dOrn]WTIGS; ester 9-C) | >32 | 4 | 32 | 32 | 16 | 16 | 18.0
4 | CCCCCCCCCCCCCCCC(=O)N[C@H](CC(N)=O)C(=O)N[C@H](Cc1ccc(O)cc1)C(=O)N[C@H](Cc1c[nH]c2ccccc12)C(=O)N[C@H](CCCN)C(=O)N[C@@H](CCCN)C(=O)NCC(=O)N[C@H](CCCN)C(=O)N[C@@H](Cc1c[nH]c2ccccc12)C(=O)N[C@@H]1C(=O)N[C@@H]([C@@H](C)CC)C(=O)NCC(=O)N[C@@H](CO)C(=O)O[C@@H]1C [Compound 17] (Palmitoyl-[dN][dY][dW][dOrn][Orn]G[dOrn]WTIGS; ester 9-C) | >32 | 32 | >32 | >32 | >32 | >32 | 13.3
5 | CC[C@H](C)[C@@H]1NC(=O)[C@@H](NC(=O)[C@H](Cc2c[nH]c3ccccc23)NC(=O)[C@@H](CCCN)NC(=O)CNC(=O)[C@H](CCCN)NC(=O)[C@@H](CCCN)NC(=O)[C@@H](Cc2c[nH]c3ccccc23)NC(=O)[C@@H](Cc2ccc(O)cc2)NC(=O)[C@H](N)CO)[C@@H](C)OC(=O)CNC(=O)CNC(=O)[C@H](CC(N)=O)NC1=O [Compound 18] (H-[dS][dY][dW][dOrn][Orn]G[dOrn]WTINGG; ester 9-C) | >32 | >32 | >32 | >32 | >32 | >32 | 0.2
